From PMC8930067 (Cardiovascular Research, 2021)
Where a name gives a salt, the structure may show the parent alone.

Target: SERCA2a (Rattus norvegicus, UniProt P11507)
Experiment: […]-ATP hydrolysis
Type: cell-based
Settings: read-out: % Vmax at 500 nmol/L

Sequence of SERCA2a (P11507 1-997 isoform P11507-2): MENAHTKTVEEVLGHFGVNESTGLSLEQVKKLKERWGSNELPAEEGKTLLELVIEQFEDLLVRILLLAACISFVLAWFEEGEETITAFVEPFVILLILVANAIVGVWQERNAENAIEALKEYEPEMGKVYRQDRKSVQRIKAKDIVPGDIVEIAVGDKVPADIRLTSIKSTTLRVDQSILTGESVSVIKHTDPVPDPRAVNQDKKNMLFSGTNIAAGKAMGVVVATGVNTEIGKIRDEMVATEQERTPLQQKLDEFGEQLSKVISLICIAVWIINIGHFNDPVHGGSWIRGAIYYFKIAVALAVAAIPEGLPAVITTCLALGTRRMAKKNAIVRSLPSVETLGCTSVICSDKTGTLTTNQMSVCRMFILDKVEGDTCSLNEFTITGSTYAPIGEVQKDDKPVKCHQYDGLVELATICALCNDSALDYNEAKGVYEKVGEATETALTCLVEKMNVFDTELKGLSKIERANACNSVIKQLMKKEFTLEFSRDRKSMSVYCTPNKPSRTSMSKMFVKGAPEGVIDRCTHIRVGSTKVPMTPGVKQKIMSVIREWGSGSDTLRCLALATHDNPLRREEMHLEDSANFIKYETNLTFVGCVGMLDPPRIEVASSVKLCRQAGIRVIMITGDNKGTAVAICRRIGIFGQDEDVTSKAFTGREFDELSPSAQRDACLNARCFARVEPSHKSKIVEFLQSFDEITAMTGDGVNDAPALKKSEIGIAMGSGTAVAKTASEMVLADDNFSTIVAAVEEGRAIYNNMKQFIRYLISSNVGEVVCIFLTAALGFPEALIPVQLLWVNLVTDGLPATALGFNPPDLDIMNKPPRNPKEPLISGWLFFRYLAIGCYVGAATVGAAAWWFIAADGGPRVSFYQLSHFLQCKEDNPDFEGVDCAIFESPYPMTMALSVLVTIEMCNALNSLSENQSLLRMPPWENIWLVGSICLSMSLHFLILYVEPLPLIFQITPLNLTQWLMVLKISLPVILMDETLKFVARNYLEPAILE

Structure (SMILES): C[C@]12CCC(=NOCCN)C[C@@H]1C(=O)C[C@@H]1[C@@H]2CC[C@]2(C)C(=O)CC[C@@H]12 [istaroxime, (E,Z)-3-((2-aminoethoxy)imino)androstane-6,17-dione hydrochloride]
- activation at 0.5 µM: 25%
